In patent US8143282B2, “Heterocyclic compounds” (S*BIO Pte Ltd., priority 2005, dated 2012) one finds IC50 and GI50 data, which are given here for 26 compounds.

The target of one assay is T1, HDAC1 enzyme (Homo sapiens, UniProt Q13547).
T1 construct: Amplification of human HDAC1 coding region from this cDNA library was cloned separately into the baculovirus expression pDEST20 vector; made in house; host or cells: SF9 insect cells, pDEST20-HDAC1 baculovirus
The experiment in a line: In vitro HDAC assay for determination of IC50 values (BIOMOL fluorescent-based HDAC activity assay). The assay is classed as biochemical. Here is the method: Human cDNA library was prepared using cultured SW620 cells. Amplification of human HDAC1 coding region from this cDNA library was cloned separately into the baculovirus expression pDEST20 vector (GATEWAY Cloning Technology, Invitrogen Pte Ltd). The pDEST20-HDAC1 construct was confirmed by DNA sequencing. Recombinant baculovirus was prepared using the Bac-To-Bac method following the manufacturer's instruction (Invitrogen Pte Ltd).
Expression of GST-HDAC1 was done by infecting SF9 cells (Invitrogen Pte Ltd) with pDEST20-HDAC1 baculovirus at MOI=1 for 48 h. Soluble cell lysate was incubated with pre-equilibrated Glutathione Sepharose 4B beads (Amersham) at 4° C. for 2 h. The beads were washed with PBS buffer for 3 times. The GST-HDAC1 protein was eluted by elution buffer containing 50 mM Tris, pH8.0, 150 mM NaCl, 1% Triton X-100 and 10 mM or 20 mM reduced Glutathione. The purified GST-HDAC1 protein was dialyzed with HDAC storage buffer containing 10 mM Tris, pH7.5, 100 mM NaCl and 3 mM MgCl2. 20% Glycerol was added to purified GST-HDAC1 protein before storage at −80° C.
The assay has been carried out in 96 well format and the BIOMOL fluorescent-based HDAC activity assay has been applied. […] Flur de lys Developer was added and the reaction was incubated for 10 min. Briefly, deacetylation of the substrate sensitizes it to the developer, which then generates a fluorophore. The fluorophore is excited with 360 nm light and the emitted light (460 nm) is detected on a fluorometric plate reader (Tecan Ultra Microplate detection system, Tecan Group Ltd.).
The analytical software, Prism 4.0 (GraphPad Software Inc) has been used to generate IC50 from a series of data.

Another assay deals with Colo205 cells. In words: Cell-based proliferation assay for GI50 (CyQUANT), Colo205. The conditions noted are these: Homo sapiens, COLO 205, 96 h treatment, read-out: Cellular or Growth Inhibition Activity in Colo205 cells, GI50. Here is the method:
Human colon cancer cell lines (Colo205, HCT116), Ovarian cancer cell line (A2780), Hepatoma cell line (HEP3B), Prostate cancer cell line (PC3) were obtained from ATCC or ECACC. Colo205 cells were cultivated in RPMI 1640 containing 2 mM L-Glutamine, 5% FBS, 1.0 mM Na Pyruvate, 1 U/ml of penicillin and 1 μg of streptomycin. HCT116 cells were cultivated in McCoy's containing RPMI 1640 containing 2 mM L-Glutamine, 5% FBS, 1 U/ml of penicillin and 1 μg of streptomycin. A2780 cells were cultivated in RPMI 1640 containing 2 mM L-Glutamine, 5% FBS, 1 U/ml of penicillin and 1 μg of streptomycin. HEP3B cells were cultivated in EMEM containing 2 mM L-glutamine, 5% FBS, 1% non essential amino acid, 1 mM Na Pyruvate, 1 U/ml of penicillin and 1 μg of streptomycin. PC3 cells were cultivated in F12K, 2 mM L-glutamine, 5% FBS, 1 U/ml of penicillin and 1 μg of streptomycin. PC3, Colo205, and HCT116 cells were seeded in 96-wells plate at 1000, 5000 and 6000 cells per well respectively. A2780 and HEP3B cells were seeded in 96-wells plate at 4000 cells per well respectively. The plates were incubated at 37° C., 5% CO2, for 24 h. Cells were treated with compounds at various concentrations for 96 h. Cell growth was then monitored using CyQUANT® cell proliferation assay (Invitrogen Pte Ltd). Dose response curves were plotted to determine GI50 values for the compounds using XL-fit (ID Business Solution, Emeryville, Calif.). GI50 is defined as the concentration of compound required for 50% inhibition of cell growth.

T1 sequence (Q13547 whole entry): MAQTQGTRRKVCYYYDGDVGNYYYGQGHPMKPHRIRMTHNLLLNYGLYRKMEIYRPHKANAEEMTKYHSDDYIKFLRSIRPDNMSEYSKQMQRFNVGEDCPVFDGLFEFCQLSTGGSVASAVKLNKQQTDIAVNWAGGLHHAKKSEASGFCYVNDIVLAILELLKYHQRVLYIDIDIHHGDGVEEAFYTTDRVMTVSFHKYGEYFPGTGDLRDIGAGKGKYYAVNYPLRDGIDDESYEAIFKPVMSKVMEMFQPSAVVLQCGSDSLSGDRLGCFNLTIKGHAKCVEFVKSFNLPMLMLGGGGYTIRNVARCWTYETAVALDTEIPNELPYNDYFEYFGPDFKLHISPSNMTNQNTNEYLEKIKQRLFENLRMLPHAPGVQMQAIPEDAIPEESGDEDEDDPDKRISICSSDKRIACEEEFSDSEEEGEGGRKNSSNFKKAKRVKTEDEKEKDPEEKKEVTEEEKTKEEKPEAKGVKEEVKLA

As a reminder, the IC50 is the concentration that inhibits the measured activity by half. The low end stands for inhibition by little substance, the high end for a need for much substance. The term GI50 denotes the concentration at which growth is held to half of that of the control. Turning to `CCCCCCCCc1nc2cc(/C=C/C(=O)NO)ccc2n1CCN` [Compound 77, 3-[1-(2-Amino-ethyl)-2-octyl-1H-benzoimidazol-5-yl]-N-hydroxy-acrylamide], the IC50 against HDAC1 enzyme stood at 26 nM. Moreover, the concentration for 50% growth inhibition (GI50) with Colo205 cells is 670 nM.

Regarding `CCCCCc1nc2cc(/C=C/C(=O)NO)ccc2n1CCN(C)CC` [Compound 79, 3-{1-[2-(Ethyl-methyl-amino)-ethyl]-2-pentyl-1H-benzoimidazol-5-yl}-N-hydroxy-acrylamide], 40 nM corresponded to half-maximal inhibition against HDAC1 enzyme (IC50). For the same compound, in the assay on Colo205 cells, the GI50 came to 450 nM.

With `CCCCc1nc2cc(/C=C/C(=O)NO)ccc2n1C1CCN(C)C1` (stereo not shown) [Compound 81, 3-[2-Butyl-1-(1-methyl-pyrrolidin-3-yl)-1H-benzoimidazol-5-yl]-N-hydroxy-acrylamide], the IC50 against HDAC1 enzyme came to 120 nM. Besides, the GI50 in the assay with Colo205 cells was found to be 1000 nM.

Take `CCCCCc1nc2cc(/C=C/C(=O)NO)ccc2n1CCN(CC)CCOC` [Compound 84, 3-(1-{2-[Ethyl-(2-methoxy-ethyl)-amino]-ethyl}-2-pentyl-1H-benzoimidazol-5-yl)-N-hydroxy-acrylamide]: the IC50 on HDAC1 enzyme was 63 nM. For the same compound, the 50% growth inhibitory concentration (GI50) with Colo205 cells came to 1030 nM.

`CCCCc1nc2cc(/C=C/C(=O)NO)ccc2n1CCN(C)CC` [Compound 85, 3-{2-Butyl-1-[2-(ethyl-methyl-amino)-ethyl]-1H-benzoimidazol-5-yl}-N-hydroxy-acrylamide] returned an IC50 at HDAC1 enzyme of 110 nM. For the same compound, in the assay on Colo205 cells, the GI50 was 1520 nM.

For the compound `CCCCCc1nc2cc(/C=C/C(=O)NO)ccc2n1C1CCCN(C)C1` (stereo not shown) [Compound 86, N-Hydroxy-3-[1-(1-methyl-piperidin-3-yl)-2-pentyl-1H-benzoimidazol-5-yl]-acrylamide], at HDAC1 enzyme, the IC50 worked out at 160 nM. Besides, the GI50 in the assay on Colo205 cells is 2080 nM.

`CCCCCCN(CC)CCn1cnc2cc(/C=C/C(=O)NO)ccc21` [Compound 87, 3-{1-[2-(Ethyl-hexyl-amino)-ethyl]-1H-benzoimidazol-5-yl}-N-hydroxy-acrylamide]: the IC50 against HDAC1 enzyme is 100 nM. The GI50 in the assay on Colo205 cells was determined as 1070 nM.

In the case of `CCCCCCCN(CC)CCn1cnc2cc(/C=C/C(=O)NO)ccc21` [Compound 89, 3-{1-[2-(Ethyl-heptyl-amino)-ethyl]-1H-benzoimidazol-5-yl}-N-hydroxy-acrylamide], the IC50 at HDAC1 enzyme is 80 nM. Further, the GI50 in the assay with Colo205 cells is 870 nM.

As to `CCCCCCc1nc2cc(/C=C/C(=O)NO)ccc2n1C1CCCN(CCO)C1` (stereo not shown) [Compound 90, 3-{2-Hexyl-1-[1-(2-hydroxy-ethyl)-piperidin-3-yl]-1H-benzoimidazol-5-yl}-N-hydroxy-acrylamide], the IC50 against HDAC1 enzyme came to 510 nM. The concentration for 50% growth inhibition (GI50) with Colo205 cells was found to be 8100 nM.

The compound `CCCCc1nc2cc(/C=C/C(=O)NO)ccc2n1CCN(CC)CCCO` [Compound 91, 3-(2-Butyl-1-{2-[ethyl-(3-hydroxy-propyl)-amino]-ethyl}-1H-benzoimidazol-5-yl)-N-hydroxy-acrylamide] returned an IC50 against HDAC1 enzyme of 60 nM. The GI50 in the assay with Colo205 cells stood at 2400 nM.

On HDAC1 enzyme, `CCCCCc1nc2cc(/C=C/C(=O)NO)ccc2n1CCN(CC)CCCO` [Compound 92, 3-(1-{2-[Ethyl-(3-hydroxy-propyl)-amino]-ethyl}-2-pentyl-1H-benzoimidazol-5-yl)-N-hydroxy-acrylamide] registered a half-inhibitory concentration (IC50) of 50 nM. Besides, the concentration for 50% growth inhibition (GI50) with Colo205 cells turned out to be 1820 nM.

Consider `O=C(/C=C/c1ccc2c(c1)ncn2C1CCN(CCc2ccccc2)C1)NO` (stereo not shown) [Compound 93, (E)-N-hydroxy-3-(1-(1-phenethylpyrrolidin-3-yl)-1H-benzo[d]imidazol-5-yl)acrylamide], for which, at HDAC1 enzyme, half-maximal inhibition (IC50) required 230 nM. For the same compound, the GI50 in the assay on Colo205 cells turned out to be 2140 nM.

Turning to `CCCCCN1CCCC(n2cnc3cc(/C=C/C(=O)NO)ccc32)C1` (stereo not shown) [Compound 94, (E)-N-hydroxy-3-(1-(1-pentylpiperidin-3-yl)-1H-benzo[d]imidazol-5-yl)acrylamide], 64 nM corresponded to half-maximal inhibition on HDAC1 enzyme (IC50). Also, in the assay on Colo205 cells, the GI50 amounted to 600 nM.

The compound `CCCCN(CC)CCn1cnc2cc(/C=C/C(=O)NO)ccc21` [Compound 95, 3-{1-[2-(Butyl-ethyl-amino)-ethyl]-1H-benzoimidazol-5-yl}-N-hydroxy-acrylamide] gave a concentration for half-maximal inhibition (IC50) at HDAC1 enzyme of 52 nM. For the same compound, in the assay on Colo205 cells, the concentration for 50% growth inhibition (GI50) amounted to 570 nM.

On to `O=C(/C=C/c1ccc2c(c1)ncn2C1CCCN(CCc2ccccc2)C1)NO` (stereo not shown) [Compound 96, (E)-N-hydroxy-3-(1-(1-phenethylpiperidin-3-yl)-1H-benzo[d]imidazol-5-yl)acrylamide], for which, at HDAC1 enzyme, it took 80 nM to reach half-maximal inhibition (IC50). The 50% growth inhibitory concentration (GI50) in the assay with Colo205 cells was 700 nM.

`O=C(/C=C/c1ccc2c(c1)ncn2C1CCCN(CCCc2ccccc2)C1)NO` (stereo not shown) [Compound 97, (E)-N-hydroxy-3-(1-(1-(3-phenylpropyl)piperidin-3-yl)-1H-benzo[d]imidazol-5-yl)acrylamide]: the midpoint of inhibition against HDAC1 enzyme, the IC50, lay at 100 nM. Besides, in the assay with Colo205 cells, the 50% growth inhibitory concentration (GI50) was found to be 670 nM.

`CC(C)(C)CCN1CCC(n2cnc3cc(/C=C/C(=O)NO)ccc32)C1` (stereo not shown) [Compound 99, 3-{1-[1-(3,3-Dimethyl-butyl)-pyrrolidin-3-yl]-1H-benzoimidazol-5-yl}-N-hydroxy-acrylamide] displayed a half-maximal inhibitory concentration (IC50) at HDAC1 enzyme of 120 nM. Moreover, the GI50 in the assay with Colo205 cells stood at 1890 nM.

On to `CCN(CC)CCn1cnc2cc(/C=C/C(=O)NO)ccc21` [Compound 100, (E)-3-(1-(2-(diethylamino)ethyl)-1H-benzo[d]imidazol-5-yl)-N-hydroxyacrylamide], for which the IC50 against HDAC1 enzyme is 190 nM. Besides, the GI50 in the assay with Colo205 cells was found to be 2250 nM.

Regarding `CCN(CC)CCn1c(CCCCC#N)nc2cc(/C=C/C(=O)NO)ccc21` [Compound 101, 3-[2-(4-Cyano-butyl)-1-(2-diethylamino-ethyl)-1H-benzoimidazol-5-yl]-N-hydroxy-acrylamide], on HDAC1 enzyme, the IC50 stood at 80 nM. Moreover, in the assay with Colo205 cells, the GI50 was determined as 2440 nM.

`CCCCN1CCCC(n2cnc3cc(/C=C/C(=O)NO)ccc32)C1` (stereo not shown) [Compound 102, (E)-3-(1-(1-butylpiperidin-3-yl)-1H-benzo[d]imidazol-5-yl)-N-hydroxyacrylamide] had a concentration for half-maximal inhibition (IC50) against HDAC1 enzyme of 540 nM. For the same compound, the GI50 in the assay with Colo205 cells is 2080 nM.

`C=CCCCN1CCCC(n2cnc3cc(/C=C/C(=O)NO)ccc32)C1` (stereo not shown) [Compound 103, (E)-N-hydroxy-3-(1-(1-(pent-4-enyl)piperidin-3-yl)-1H-benzo[d]imidazol-5-yl)acrylamide] had a half-maximal inhibitory concentration (IC50) against HDAC1 enzyme of 100 nM. Moreover, in the assay with Colo205 cells, the GI50 came out at 480 nM.

The compound `CC(C)(C)CCN1CCC(n2cnc3cc(/C=C/C(=O)NO)ccc32)CC1` [Compound 104, (E)-3-(1-(1-(3,3-dimethylbutyl)piperidin-4-yl)-1H-benzo[d]imidazol-5-yl)-N-hydroxyacrylamide] came in with a concentration for half-maximal inhibition (IC50) against HDAC1 enzyme of 410 nM. Also, the 50% growth inhibitory concentration (GI50) in the assay with Colo205 cells came to 1990 nM.

On HDAC1 enzyme, `CCCNc1nc2cc(/C=C/C(=O)NO)ccc2n1CCN(CC)CC` [Compound 105, 3-[1-(2-Diethylamino-ethyl)-2-propylamino-1H-benzoimidazol-5-yl]-N-hydroxy-acrylamide] registered an IC50 of 130 nM. The 50% growth inhibitory concentration (GI50) in the assay on Colo205 cells was 1770 nM.

The compound `CCCN(CCn1cnc2cc(/C=C/C(=O)NO)ccc21)C(C)C` [Compound 107, (E)-N-hydroxy-3-(1-(2-(isopropyl(propyl)amino)ethyl)-1H-benzo[d]imidazol-5-yl)acrylamide] yielded an IC50 on HDAC1 enzyme of 74 nM. Besides, the concentration for 50% growth inhibition (GI50) with Colo205 cells was 630 nM.

For `CCCCCN(CCn1cnc2cc(/C=C/C(=O)NO)ccc21)C(C)C` [Compound 109, N-Hydroxy-3-{1-[2-(isopropyl-pentyl-amino)-ethyl]-1H-benzoimidazol-5-yl}-acrylamide], inhibition against HDAC1 enzyme was half-maximal at 48 nM (IC50). For the same compound, the concentration for 50% growth inhibition (GI50) in the assay with Colo205 cells stood at 490 nM.

In turn, `CCN(CC)CCn1c(CCCCCC#N)nc2cc(/C=C/C(=O)NO)ccc21` [Compound 110, 3-[2-(5-Cyano-pentyl)-1-(2-diethylamino-ethyl)-1H-benzoimidazol-5-yl]-N-hydroxy-acrylamide] came in with an IC50 on HDAC1 enzyme of 44 nM. Also, the GI50 in the assay on Colo205 cells was determined as 1740 nM.
